Molecular target: T1, human metabotropic glutamate 7 receptor (hmGlu7) (Homo sapiens, UniProt Q14831)
T1 construct: expressed in transfected cells
Test: mGlu7 assay on HEK-expressing human mGlu7: fluorescent cell based-Ca2+ mobilization assay (FLIPR), inhibition of EC80 L-AP4 response
Conditions: HEK-293 cells expressing hmGlu7, EC80 L-AP4; mean of at least three independent experiments in duplicate; read-out: Ca^2+ Flux (mean IC50)
From the text: mGlu7 Assay on HEK-Expressing Human mGLU7
The cDNA encoding the human metabotropic glutamate 7 receptor (hmGlu7), (accession number NM_181874.2, NCBI Nucleotide database browser), was subcloned into an expression vector containing also the hygromycin resistance gene. In parallel, the cDNA encoding a G protein allowing redirection of the activation signal to intracellular calcium flux was subcloned into a different expression vector containing also the Puromycin resistance gene. Transfection of both these vectors into HEK293 cells with PolyFect reagent (Qiagen) according to supplier's protocol, and hygromycin and puromycin treatment allowed selection of antibiotic resistant cells which had integrated stably one or more copies of the plasmids. Positive cellular clones expressing hmGlu7 were identified in a functional assay measuring changes in calcium fluxes in response to glutamate and L-AP4 or known mGlu7 orthosteric antagonists.
HEK-293 cells expressing hmGlu7 were maintained in media containing DMEM, Fetal Bovine Serum (10%), GlutaMAX™ (2 mM), penicillin (100 units/mL), streptomycin (100 μg/mL), geneticin (100 μg/mL) and hygromycin-B (40 μg/mL) and puromycin (1 μg/mL) at 37° C. with 5% CO2 in a humidified atmosphere.
Human mGlu7 HEK-293 cells were plated out 24 hours prior to a fluorescent cell-based calcium mobilization assay using FLIPR^384 assay (Molecular Device, Sunnyvale, CA, USA) in black-walled, clear-bottomed, poly-L-ornithine-coated 384-well plates at a density of 25,000 cells/well in a glutamine/glutamate free DMEM medium containing fetal bovine serum (10%), penicillin (100 units/mL), streptomycin (100 μg/mL) and doxycyline (1 μg/ml) at 37° C. with 5% CO2 in a humidified atmosphere.
On the day of the assay, the medium was aspirated and the cells were loaded with a 3 μM solution of Fluo4-AM (LuBioScience, Lucerne, Switzerland) in 0.03% pluronic acid. After 1 hour at 37° C./5% CO2, the non incorporated dye was removed by washing cell plate with the assay buffer. All assays were performed in a pH 7.4 buffered-Solution containing 20 mM HEPES, 143 mM NaCl, 6 mM KCl, 1 mM MgSO4, 1 mM CaCl2, 0.125 mM sulfinpyrazone and 0.1% glucose.
After 10 s of basal fluorescence recording, various concentrations of the compounds of the invention were added to the cells. Changes in fluorescence levels were first monitored for 180 s in order to detect any agonist activity of the compounds. Then the cells were stimulated by an EC80 L-AP4 concentration for an additional 110 s in order to measure inhibiting activities of the compounds of the invention. EC80 L-AP4 concentration is the concentration giving 80% of the maximal glutamate response.
The concentration-response curves of L-AP4 or representative compounds of the present invention were generated using the Prism GraphPad software (Graph Pad Inc, San Diego, USA). The curves were fitted to a four-parameter logistic equation:
(Y=Bottom+(Top−Bottom)/(1+10^((Log IC50−X)*Hill Slope)
allowing determination of IC50 values.
The Table 3 below represents the mean IC50 obtained from at least three independent experiments of selected molecules performed in duplicate.

T1 sequence (Q14831 35-922 isoform Q14831-2 limits assumed): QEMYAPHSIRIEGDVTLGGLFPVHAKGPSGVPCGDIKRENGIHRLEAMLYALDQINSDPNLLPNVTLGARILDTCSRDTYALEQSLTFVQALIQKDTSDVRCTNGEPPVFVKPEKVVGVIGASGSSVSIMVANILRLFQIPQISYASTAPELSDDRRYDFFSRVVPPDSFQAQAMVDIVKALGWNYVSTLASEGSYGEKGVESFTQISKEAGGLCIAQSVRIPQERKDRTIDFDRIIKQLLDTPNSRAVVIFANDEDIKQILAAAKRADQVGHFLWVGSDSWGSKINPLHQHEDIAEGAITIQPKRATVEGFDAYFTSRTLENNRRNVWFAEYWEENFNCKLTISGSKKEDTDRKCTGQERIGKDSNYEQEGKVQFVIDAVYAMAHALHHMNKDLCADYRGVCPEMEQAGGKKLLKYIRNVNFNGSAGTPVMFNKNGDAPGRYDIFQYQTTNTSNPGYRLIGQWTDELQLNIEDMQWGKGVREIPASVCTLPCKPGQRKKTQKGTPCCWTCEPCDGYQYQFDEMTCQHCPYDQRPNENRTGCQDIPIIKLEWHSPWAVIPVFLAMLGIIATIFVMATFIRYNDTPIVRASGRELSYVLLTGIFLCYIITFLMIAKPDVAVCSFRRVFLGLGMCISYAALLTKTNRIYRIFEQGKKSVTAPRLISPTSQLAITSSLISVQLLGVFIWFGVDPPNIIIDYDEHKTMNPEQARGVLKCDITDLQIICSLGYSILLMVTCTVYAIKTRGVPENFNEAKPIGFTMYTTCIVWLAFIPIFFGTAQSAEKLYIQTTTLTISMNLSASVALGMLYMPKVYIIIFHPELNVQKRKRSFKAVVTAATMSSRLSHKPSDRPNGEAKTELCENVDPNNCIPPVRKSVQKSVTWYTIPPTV

SMILES	IC50 [nM]
COc1ccc(-c2c(C)c3cnn(-c4ccccn4)c(=O)n3c2C)cc1 [1-130]	100 to 1000
COc1ccc(-c2cc3cnn(-c4ncccn4)c(=O)n3c2C)cn1 [1-144]	100 to 1000
Cc1c(C2=CCCCC2)c(C)n2c(=O)n(-c3ccccn3)ncc12 [1-14]	1000 to 10000
Cc1c(-c2c(C)c3cnn(-c4ccccn4)c(=O)n3c2C)cccc1N1CCC1 [1-13]	< 100
Cc1c(-c2cccc(OC(F)(F)F)c2)c(C)n2c(=O)n(-c3ccccn3)ncc12 [1-38]	100 to 1000
COc1ccc(-c2c(C)c3cnn(-c4ncccn4)c(=O)n3c2C)cn1 [1-132]	< 100
Cc1c(-c2cccc(OC3CC3)c2)c(C)n2c(=O)n(-c3ccccn3)ncc12 [1-20]	< 100
Cc1c(-c2cccc(OC3CC3)c2F)c(C)n2c(=O)n(-c3ncccn3)ncc12 [1-125]	100 to 1000
Cc1c(-c2cccc(OC3CC3)c2Cl)cc2cnn(-c3ncccn3)c(=O)n12 [1-110]	< 100
Cc1c(-c2cccc(N3CCC3)c2)c(C)n2c(=O)n(-c3ncccc3F)ncc12 [1-7]	< 100
COc1cnc(-n2ncc3c(C)c(-c4cccc(N5CCC5)c4)c(C)n3c2=O)nc1 [1-25]	< 100
Cc1c(-c2ccnc(OC(F)F)c2)cc2cnn(-c3ncccn3)c(=O)n12 [1-147]	< 100
COCCNc1ccc(-n2ncc3c(C)c(-c4cccc(N5CCC5)c4)c(C)n3c2=O)nc1 [1-35]	100 to 1000
Cc1c(OC(F)F)cccc1-c1c(C)c2cnn(-c3ncccn3)c(=O)n2c1C [1-120]	100 to 1000
COc1nccc(-c2c(C)c3cnn(-c4ncccn4)c(=O)n3c2C)c1F [1-138]	100 to 1000
Cc1c(-c2cccc3c2CCCN3C)c(C)n2c(=O)n(-c3ncccn3)ncc12 [1-86]	100 to 1000
Cc1c(-c2cccc(OC3CCC3)c2)c(C)n2c(=O)n(-c3ncccn3)ncc12 [1-124]	100 to 1000
Cc1c(-c2cccc3c2ccn3C2CC2)c(C)n2c(=O)n(-c3ncccn3)ncc12 [1-96]	< 100
Cc1c(-c2cccc3c2CC(=O)N3C)cc2cnn(-c3ccccn3)c(=O)n12 [1-78]	< 100

SMILES	IC50 [nM]
COc1cc(F)cc(-c2cc3cnn(-c4ncccn4)c(=O)n3c2C)c1 [1-103]	< 100
Cc1ccc(OC2CC2)cc1-c1c(C)c2cnn(-c3ncccn3)c(=O)n2c1C [1-93]	< 100
Cc1c(OC2CC2)cccc1-c1c(C)c2cnn(-c3ccc(F)cn3)c(=O)n2c1C [1-54]	100 to 1000
Cc1c(-c2cccc(OC(F)F)c2)c(C)n2c(=O)n(-c3ncccn3)ncc12 [1-58]	< 100
Cc1c(-c2cccc3c2CCCN3C)cc2cnn(-c3ncccn3)c(=O)n12 [1-89]	< 100
COc1ccc(F)c(-c2cc3cnn(-c4ccccn4)c(=O)n3c2C)c1 [1-102]	< 100
COc1cccc(-c2cc3cnn(-c4ccccn4)c(=O)n3c2C)c1Cl [1-73]	< 100
Cc1c(OC2CC2)cccc1-c1c(C)c2cnn(-c3ncc(F)cn3)c(=O)n2c1C [1-49]	100 to 1000
Cc1c(-c2cccc(N3CCC3)c2)c(C)n2c(=O)n(-c3ncccn3)ncc12 [1-23]	< 100
COc1cnc(-n2ncc3c(C)c(-c4ccc(C)cc4C)c(C)n3c2=O)nc1 [1-46]	100 to 1000
Cc1c(-c2cccc3c2CCN3C2CC2)c(C)n2c(=O)n(-c3ncccn3)ncc12 [1-99]	100 to 1000
Cc1c(OC2CC2)cccc1-c1cc2cnn(-c3ncccn3)c(=O)n2c1 [1-18, 7-[3-(cyclopropoxy)-2-methyl-phenyl]-3-pyrimidin-2-yl-pyrrolo[1,2-d][1,2,4]triazin-4-one]	100 to 1000
COc1cccc(-c2cc3cnn(-c4ncccn4)c(=O)n3c2C)c1Cl [1-77]	< 100
Cc1c(-c2cccc(N3CCC3)c2)c(C)n2c(=O)n(-c3ccc(CCO)cn3)ncc12 [1-11]	1000 to 10000
Cc1c(-c2cccc3c2OCCN3C)cc2cnn(-c3ccccn3)c(=O)n12 [1-62]	< 100
COc1cnc(-n2ncc3c(C)c(-c4cccc(OC(F)F)c4)c(C)n3c2=O)nc1 [1-57]	100 to 1000
Cc1c(-c2ccnc3c2CCN3C)cc2cnn(-c3ncccn3)c(=O)n12 [1-119]	100 to 1000
Cc1c(-c2cccc3c2CCN3C)c(C)n2c(=O)n(-c3ncccn3)ncc12 [1-87]	100 to 1000
